Consider 38 compounds from US20260098017A1, “NOVEL AROMATIC RING DERIVATIVE CONTAINING AMIDE SUBSTITUTION AND USE THEREOF” (TIANJIN PHARMACEUTICAL BIOTECHNOLOGY CO., LTD., priority 2022, published 2026).

The target in this test is Ba/F3 cell line expressing TYK2 (Homo sapiens, UniProt P29597, cells depend on it, form not given). Put plainly: In vitro cellular inhibition assay (Ba/F3 cell proliferation, CellTiter-Glo). It counts as cell-based. To be noted: read-out: IC50 (the source's name). The method, then: The inhibitory effect of the compounds of formula (I) according to the present invention on the TYK2 signaling pathway in cells was assessed using the following method:
Instrumentation: SpectraMax Paradigm reader.
Method: in this experiment, a Ba/F3 cell line expressing TYK2 was employed to assess the effect of the compounds on cell proliferation inhibition by measuring their effects on cell activity in vitro.
Procedure: a CellTiter-Glo buffer was thawed and placed aside till room temperature. A CellTiter-Glo substrate was placed aside till room temperature and dissolved with the buffer to prepare a CellTiter-Glo working solution. To a 96-well flat bottom transparent drug plate, 98 μL of cell culture medium and 2 μL of gradient diluted compound solution were added. The drug plate was placed aside for 10 min, and then 50 μL of the CellTiter-Glo working solution was added. The drug plate was subsequently shaken on an orbital shaker for 2 min and placed aside at room temperature for an additional 10 min. Finally, the luminescence signal was measured on the SpectraMax Paradigm reader.
Data Analysis: the cell proliferation inhibition rate data were processed using the following formula:
Inhibition Rate (Inh %)=100−(RLUDrug−RLUMin)/(RLUMax−RLUMin)×100%.
The inhibition rates of compounds with different concentrations were calculated in EXCEL, and then GraphPad Prism software was employed to plot inhibition rate curve and calculate relevant parameters, including maximum and minimum cell inhibition rates, IC50 values.
With `[2H]C([2H])([2H])NC(=O)c1cnc(NC(=O)C2CC2)cc1Nc1cccc(C(=O)Nc2cccc(OC)c2)c1OC` [Example 66], the GI50 was 5 to 10 nM. Under `[2H]C([2H])([2H])NC(=O)c1cnc(NC(=O)C2CC2)cc1Nc1cccc(C(=O)Nc2cccc(C#N)c2)c1OC` [Example 67] stands 5 to 10 nM; under `[2H]C([2H])([2H])NC(=O)c1cnc(NC(=O)C2CC2)cc1Nc1cccc(C(=O)Nc2cccc(C(C)C)c2)c1OC` [Example 68], 5 to 10 nM; under `[2H]C([2H])([2H])NC(=O)c1cnc(NC(=O)C2CC2)cc1Nc1cccc(C(=O)Nc2cccc(C(C)(C)C)c2)c1OC` [Example 69], 5 to 10 nM.

For the compound `[2H]C([2H])([2H])NC(=O)c1cnc(NC(=O)C2CC2)cc1Nc1cccc(C(=O)Nc2ccc(CC)cc2)c1OC` [Example 70], the GI50 fell in the range of 5 to 10 nM. With `[2H]C([2H])([2H])NC(=O)c1cnc(NC(=O)C2CC2)cc1Nc1cccc(C(=O)Nc2ccc(C3CC3)cc2)c1OC` [Example 71] the figure was 5 to 10 nM; with `[2H]C([2H])([2H])NC(=O)c1cnc(NC(=O)C2CC2)cc1Nc1cccc(C(=O)Nc2ccc(C(C)C)cc2)c1OC` [Example 72], 5 to 10 nM.

As to `[2H]C([2H])([2H])NC(=O)c1cnc(NC(=O)C2CC2)cc1Nc1cccc(C(=O)Nc2ccc(C(C)(C)C)cc2)c1OC` [Example 73], the GI50 lay in the range of 5 to 10 nM. Under `[2H]C([2H])([2H])NC(=O)c1cnc(NC(=O)C2CC2)cc1Nc1cccc(C(=O)Nc2ccc(C(F)(F)F)cc2)c1OC` [Example 74] stands 5 to 10 nM. With `[2H]C([2H])([2H])NC(=O)c1cnc(NC(=O)C2CC2)cc1Nc1cccc(C(=O)Nc2ccc(C#N)cc2)c1OC` [Example 75] the figure was 5 to 10 nM; with `[2H]C([2H])([2H])NC(=O)c1cnc(NC(=O)C2CC2)cc1Nc1cccc(C(=O)Nc2ccc(OC)cc2)c1OC` [Example 76], 5 to 10 nM. With `[2H]C([2H])([2H])NC(=O)c1cnc(NC(=O)C2CC2)cc1Nc1cccc(C(=O)Nc2ccc(CC)c(C)c2)c1OC` [Example 77] the figure was 5 to 10 nM; with `[2H]C([2H])([2H])NC(=O)c1cnc(NC(=O)C2CC2)cc1Nc1cccc(C(=O)Nc2ccc(C3CC3)c(C)c2)c1OC` [Example 78], 5 to 10 nM. As to `[2H]C([2H])([2H])NC(=O)c1cnc(NC(=O)C2CC2)cc1Nc1cccc(C(=O)Nc2ccc(C(C)C)c(C)c2)c1OC` [Example 79], the GI50 is 5 to 10 nM. With `[2H]C([2H])([2H])NC(=O)c1cnc(NC(=O)C2CC2)cc1Nc1cccc(C(=O)Nc2ccc(C(C)(C)C)c(C)c2)c1OC` [Example 80] the figure was 5 to 10 nM; with `[2H]C([2H])([2H])NC(=O)c1cnc(NC(=O)C2CC2)cc1Nc1cccc(C(=O)Nc2ccc(C(F)(F)F)c(C)c2)c1OC` [Example 81], 5 to 10 nM; with `[2H]C([2H])([2H])NC(=O)c1cnc(NC(=O)C2CC2)cc1Nc1cccc(C(=O)Nc2ccc(C#N)c(C)c2)c1OC` [Example 82], 5 to 10 nM. With `[2H]C([2H])([2H])NC(=O)c1cnc(NC(=O)C2CC2)cc1Nc1cccc(C(=O)Nc2ccc(OC)c(C)c2)c1OC` [Example 83] the figure was 5 to 10 nM; with `[2H]C([2H])([2H])NC(=O)c1cnc(NC(=O)C2CC2)cc1Nc1cccc(C(=O)Nc2ccc(F)c(C)c2)c1OC` [Example 84], 5 to 10 nM; with `[2H]C([2H])([2H])NC(=O)c1cnc(NC(=O)C2CC2)cc1Nc1cccc(C(=O)Nc2ccn(C)n2)c1OC` [Example 85], 5 to 10 nM.

`[2H]C([2H])([2H])NC(=O)c1cnc(NC(=O)C2CC2)cc1Nc1cccc(C(=O)Nc2cn(C)cn2)c1OC` [Example 87]: the GI50 lay in the range of 5 to 10 nM. In the case of `[2H]C([2H])([2H])NC(=O)c1cnc(NC(=O)C2CC2)cc1Nc1cccc(C(=O)Nc2ncn(C)n2)c1OC` [Example 88], the GI50 is 5 to 10 nM. Regarding `[2H]C([2H])([2H])NC(=O)c1cnc(NC(=O)C2CC2)cc1Nc1cccc(C(=O)Nc2cccc(C)n2)c1OC` [Example 89], the GI50 was 5 to 10 nM. As for `[2H]C([2H])([2H])NC(=O)c1cnc(NC(=O)C2CC2)cc1Nc1cccc(C(=O)Nc2ccnc(C)c2)c1OC` [Example 90], the GI50 is 5 to 10 nM. With `[2H]C([2H])([2H])NC(=O)c1cnc(NC(=O)C2CC2)cc1Nc1cccc(C(=O)Nc2cc(C)ccn2)c1OC` [Example 92] the figure was 5 to 10 nM. Under `[2H]C([2H])([2H])NC(=O)c1cnc(NC(=O)C2CC2)cc1Nc1cccc(C(=O)Nc2ncc(F)cn2)c1OC` [Example 93] stands 5 to 10 nM; under `[2H]C([2H])([2H])NC(=O)c1cnc(NC(=O)C2CC2)cc1Nc1cccc(C(=O)Nc2ccc(F)cn2)c1OC` [Example 94], 5 to 10 nM; under `[2H]C([2H])([2H])NC(=O)c1cnc(NC(=O)C2CC2)cc1Nc1cccc(C(=O)Nc2ccc(C)cn2)c1OC` [Example 95], 5 to 10 nM. With `[2H]C([2H])([2H])NC(=O)c1cnc(NC(=O)C2CC2)cc1Nc1cccc(C(=O)Nc2ncc(C)cn2)c1OC` [Example 97] the figure was 5 to 10 nM; with `[2H]C([2H])([2H])NC(=O)c1cnc(NC(=O)C2CC2)cc1Nc1cccc(C(=O)Nc2ccc(F)nc2)c1OC` [Example 98], 5 to 10 nM; with `[2H]C([2H])([2H])NC(=O)c1cnc(NC(=O)C2CC2)cc1Nc1cccc(C(=O)Nc2cnc(F)nc2)c1OC` [Example 99], 5 to 10 nM. Take `[2H]C([2H])([2H])NC(=O)c1cnc(NC(=O)C2CC2)cc1Nc1cccc(C(=O)Nc2ccccn2)c1OC` [Example 100]: the GI50 fell in the range of 5 to 10 nM.

In the case of `[2H]C([2H])([2H])NC(=O)c1cnc(NC(=O)C2CC2)cc1Nc1cccc(C(=O)Nc2cccnc2)c1OC` [Example 101], the GI50 lay within 5 to 10 nM. Under `[2H]C([2H])([2H])NC(=O)c1cnc(NC(=O)C2CC2)cc1Nc1cccc(C(=O)Nc2ccncc2)c1OC` [Example 102] stands 5 to 10 nM.

For the compound `[2H]C([2H])([2H])NC(=O)c1cnc(NC(=O)C2CC2)cc1Nc1cccc(C(=O)Nc2ncccn2)c1OC` [Example 103], the GI50 was in the range of 5 to 10 nM. Under `[2H]C([2H])([2H])NC(=O)c1cnc(NC(=O)C2CC2)cc1Nc1cccc(C(=O)Nc2cncnc2)c1OC` [Example 104] stands 5 to 10 nM. With `[2H]C([2H])([2H])NC(=O)c1nnc(NC(=O)C2CC2)cc1Nc1cccc(C(=O)NC(C)(C)C)c1OC` [Example 105] the figure was 5 to 10 nM; with `[2H]C([2H])([2H])NC(=O)c1cnc(NC(=O)C2CC2)cc1Nc1cccc(C(=O)NC(C)(C)C)c1OC` [Example 106], 5 to 10 nM.
